“And” between values parts separate entries of the source, which are not always exact repeats. Identical values can stand only once. Toxic doses and inconclusive results are not listed. Rule as the data show it: active = T/C of 150% or more; inactive = T/C below 125%.
Tested on: L1210 leukemia ip in BDF1 mice, survival T/C
Assay: NCI In Vivo Anticancer Drug Screen. Data for tumor model L1210 Leukemia (intraperitoneal) in B6D2F1 (BDF1) mice
Details: endpoint: mean survival time, higher = longer survival
Procedure, shortened: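 Antitumor effect is assessed in tumor-bearing animals. Survival in the compound arm is compared with a vehicle-dosed control arm and expressed as their quotient.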

[1] = dose: 100.0 mg/kg/injection, schedule: Q04DX002 (ip), vehicle: saline with Tween-80
[2] = dose: 200.0 mg/kg/injection, schedule: Q04DX002 (ip), vehicle: saline with Tween-80
[3] = dose: 400.0 mg/kg/injection, schedule: Q04DX002 (ip), vehicle: saline with Tween-80
[4] = dose: 100.0 mg/kg/injection, schedule: Q01DX001 (ip), vehicle: saline
[5] = dose: 100.0 mg/kg/injection, schedule: Q01DX001 (ip), vehicle: carboxymethylcellulose (CMC)
[6] = dose: 200.0 mg/kg/injection, schedule: Q01DX001 (ip), vehicle: carboxymethylcellulose (CMC)
[7] = dose: 400.0 mg/kg/injection, schedule: Q01DX001 (ip), vehicle: carboxymethylcellulose (CMC)
[8] = dose: 100.0 mg/kg/injection, schedule: Q01DX009 (ip), vehicle: Klucel (hydroxypropylcellulose) (HPC)
[9] = dose: 200.0 mg/kg/injection, schedule: Q01DX009 (ip), vehicle: Klucel (hydroxypropylcellulose) (HPC)
[10] = dose: 400.0 mg/kg/injection, schedule: Q01DX009 (ip), vehicle: Klucel (hydroxypropylcellulose) (HPC)

Measured: T/C

C=C1C(C(=O)OCC)C1C(=O)OCC (centres undefined)
inactive: dose: 50.0 mg/kg/injection, schedule: Q04DX002 (ip), vehicle: saline with Tween-80 98 % of control | [1] 103 % of control | [2] 106 % of control | [3] 98 % of control

O=C(Cc1ccccc1)NCCCl
inactive: [1] 103 % of control | [2] 103 % of control | [3] 105 % of control

C1CC[N-]CC1.Oc1ccccc1C=NCCN=Cc1ccccc1O.[Co]
inactive: dose: 6.25 mg/kg/injection, schedule: Q04DX002 (ip), vehicle: saline with Tween-80 90 % of control

Nc1nc2c(c(=O)[nH]1)[N+]1=CN(c3ccc(C(=O)NC(CCC(=O)O)C(=O)O)cc3)CCC1CN2 (centres undefined)
inactive: dose: 1.0 mg/kg/injection, schedule: Q01DX009 (ip), vehicle: saline 94 % of control | dose: 2.0 mg/kg/injection, schedule: Q01DX009 (ip), vehicle: saline 100 % of control | dose: 4.0 mg/kg/injection, schedule: Q01DX009 (ip), vehicle: saline 105 % of control | dose: 4.0 mg/kg/injection, schedule: Q04DX003 (ip), vehicle: saline 97 % of control | dose: 8.0 mg/kg/injection, schedule: Q01DX009 (ip), vehicle: saline 94 % of control | dose: 8.0 mg/kg/injection, schedule: Q04DX003 (ip), vehicle: saline 100 % of control | dose: 16.0 mg/kg/injection, schedule: Q01DX009 (ip), vehicle: saline 97 % of control | dose: 16.0 mg/kg/injection, schedule: Q04DX003 (ip), vehicle: saline 99 % of control | dose: 32.0 mg/kg/injection, schedule: Q04DX003 (ip), vehicle: saline 90 % of control | dose: 64.0 mg/kg/injection, schedule: Q04DX003 (ip), vehicle: saline 97 % of control

Nc1ccc(C(=O)N/N=C/c2ccc(N(CCBr)CCBr)cc2)cc1
inactive: dose: 12.5 mg/kg/injection, schedule: Q01DX Z (ip), vehicle: carboxymethylcellulose (CMC) 124 % of control | [4] 98 % of control | dose: 200.0 mg/kg/injection, schedule: Q01DX001 (ip), vehicle: saline 108 % of control

CCCCCCCCCCCCS
inactive: [5] 103 % of control | [6] 105 % of control | [7] 103 % of control

CS(=O)(=O)c1cc(N2CC2)ncn1
inactive: dose: 4.0 mg/kg/injection, schedule: Q01DX015 (ip), vehicle: carboxymethylcellulose (CMC) 96 % of control | dose: 8.0 mg/kg/injection, schedule: Q01DX015 (ip), vehicle: carboxymethylcellulose (CMC) 102 % of control | dose: 16.0 mg/kg/injection, schedule: Q01DX015 (ip), vehicle: carboxymethylcellulose (CMC) 108 % of control | dose: 32.0 mg/kg/injection, schedule: Q01DX015 (ip), vehicle: carboxymethylcellulose (CMC) 113 % of control and 120 % of control | dose: 64.0 mg/kg/injection, schedule: Q01DX015 (ip), vehicle: carboxymethylcellulose (CMC) 110 % of control

CC(C)c1nc2c(=O)[nH]cnc2o1
inactive: dose: 25.0 mg/kg/injection, schedule: Q01DX005 (ip), vehicle: saline 105 % of control | dose: 50.0 mg/kg/injection, schedule: Q01DX005 (ip), vehicle: saline 107 % of control | dose: 100.0 mg/kg/injection, schedule: Q01DX005 (ip), vehicle: saline 95 % of control and 102 % of control | dose: 200.0 mg/kg/injection, schedule: Q01DX005 (ip), vehicle: saline 100 % of control

COc1ccc2c3c(ccc2c1)NC(C(=O)O)CC3 (centres undefined)
inactive: [8] 97 % of control | [9] 96 % of control | [10] 96 % of control

C[N+](C)(C)C(=O)c1ccccc1
inactive: dose: 50.0 mg/kg/injection, schedule: Q01DX001 (ip), vehicle: saline 104 % of control | [4] 101 % of control

O=S(=O)(CCl)Nc1ccccn1
inactive: dose: 100.0 mg/kg/injection, schedule: Q01DX009 (ip), vehicle: other 96 % of control | dose: 100.0 mg/kg/injection, schedule: Q04DX003 (ip), vehicle: other 106 % of control | dose: 200.0 mg/kg/injection, schedule: Q01DX009 (ip), vehicle: other 103 % of control | dose: 200.0 mg/kg/injection, schedule: Q04DX003 (ip), vehicle: other 108 % of control | dose: 400.0 mg/kg/injection, schedule: Q01DX009 (ip), vehicle: other 102 % of control | dose: 400.0 mg/kg/injection, schedule: Q04DX003 (ip), vehicle: other 100 % of control

CCn1cnc2cc(N=Cc3ccc(N(CCCl)CCCl)cc3)ccc21
inactive: dose: 56.3 mg/kg/injection, schedule: Q04DX002 (ip), vehicle: saline 106 % of control | dose: 112.5 mg/kg/injection, schedule: Q04DX002 (ip), vehicle: saline 117 % of control | dose: 225.0 mg/kg/injection, schedule: Q04DX002 (ip), vehicle: saline 102 % of control

O=S(=O)(CCCl)Cc1ccc(Cl)cc1
inactive: dose: 100.0 mg/kg/injection, schedule: Q04DX002 (ip), vehicle: Klucel (hydroxypropylcellulose) (HPC) 104 % of control | dose: 200.0 mg/kg/injection, schedule: Q04DX002 (ip), vehicle: Klucel (hydroxypropylcellulose) (HPC) 93 % of control

BrCC1COc2ccccc2O1 (centres undefined)
inactive: [5] 100 % of control | [6] 100 % of control | [7] 91 % of control

COc1cc(N)ccc1NC(=O)c1ccccc1
inactive: dose: 12.5 mg/kg/injection, schedule: Q01DX001 (ip), vehicle: carboxymethylcellulose (CMC) 117 % of control | dose: 25.0 mg/kg/injection, schedule: Q01DX001 (ip), vehicle: carboxymethylcellulose (CMC) 106 % of control

COc1cc2ccc3c4cc5c(cc4cnc3c2cc1OC)OCO5
inactive: dose: 100.0 mg/kg/injection, schedule: Q01DX009 (ip), vehicle: saline with Tween-80 102 % of control | dose: 100.0 mg/kg/injection, schedule: Q04DX003 (ip), vehicle: saline with Tween-80 89 % of control | dose: 200.0 mg/kg/injection, schedule: Q01DX009 (ip), vehicle: saline with Tween-80 98 % of control | dose: 200.0 mg/kg/injection, schedule: Q04DX003 (ip), vehicle: saline with Tween-80 87 % of control | dose: 400.0 mg/kg/injection, schedule: Q01DX009 (ip), vehicle: saline with Tween-80 106 % of control | dose: 400.0 mg/kg/injection, schedule: Q04DX003 (ip), vehicle: saline with Tween-80 89 % of control

C[C@]12C=CC(=O)C=C1CC[C@H]1[C@@H]3CCC(=O)O[C@@]3(C)CC(=O)[C@@]12F
inactive: dose: 50.0 mg/kg/injection, schedule: Q01DX001 (sc), vehicle: steriod suspending solution 102 % of control | dose: 50.0 mg/kg/injection, schedule: Q01DX009 (sc), vehicle: steriod suspending solution 102 % of control | dose: 100.0 mg/kg/injection, schedule: Q01DX001 (sc), vehicle: steriod suspending solution 104 % of control | dose: 100.0 mg/kg/injection, schedule: Q01DX009 (sc), vehicle: steriod suspending solution 100 % of control | dose: 200.0 mg/kg/injection, schedule: Q01DX001 (sc), vehicle: steriod suspending solution 107 % of control | dose: 200.0 mg/kg/injection, schedule: Q01DX009 (sc), vehicle: steriod suspending solution 97 % of control | dose: 400.0 mg/kg/injection, schedule: Q01DX001 (sc), vehicle: steriod suspending solution 113 % of control | dose: 400.0 mg/kg/injection, schedule: Q01DX009 (sc), vehicle: steriod suspending solution 100 % of control

CNC(=S)c1ccc(Cl)cc1
inactive: dose: 12.5 mg/kg/injection, schedule: Q01DX009 (ip), vehicle: Klucel (hydroxypropylcellulose) (HPC) 96 % of control | dose: 25.0 mg/kg/injection, schedule: Q01DX009 (ip), vehicle: Klucel (hydroxypropylcellulose) (HPC) 94 % of control

Cc1ccc(S(=O)(=O)N2CCOCCOCCOc3ccc4ccccc4c3-c3c(ccc4ccccc34)OCCOCC2)cc1
inactive: dose: 100.0 mg/kg/injection, schedule: Q01DX001 (ip), vehicle: saline with Tween-80 95 % of control | dose: 200.0 mg/kg/injection, schedule: Q01DX001 (ip), vehicle: saline with Tween-80 88 % of control | dose: 400.0 mg/kg/injection, schedule: Q01DX001 (ip), vehicle: saline with Tween-80 95 % of control

CSc1ccccc1C(=O)NNS(=O)(=O)c1ccc(C)cc1
inactive: [8] 101 % of control | dose: 100.0 mg/kg/injection, schedule: Q04DX003 (ip), vehicle: Klucel (hydroxypropylcellulose) (HPC) 95 % of control | [9] 103 % of control | dose: 200.0 mg/kg/injection, schedule: Q04DX003 (ip), vehicle: Klucel (hydroxypropylcellulose) (HPC) 97 % of control | [10] 95 % of control | dose: 400.0 mg/kg/injection, schedule: Q04DX003 (ip), vehicle: Klucel (hydroxypropylcellulose) (HPC) 97 % of control

Reference: PubChem BioAssay AID248 (DTP/NCI, 2004)
